Key:
Format in all cases: in vivo
Pyricularia oryzae = conditions: rice seedlings (variety Sachikaze), sprayed 24 hours after inoculation at 10 ppm (30 ml/3 pots), further 6 days; number of lesions on the upper two leaves
Rhizoctonia solani [1] = experiment: Preventive activity against sheath blight of rice plants (Experiment 2); parameters: key: 0 = disease as untreated, 5 = no disease (complete control); conditions: rice seedlings (variety Nihonbare), sprayed at 100 ppm (30 ml/3 pots) 24 hours before inoculation, 5 days; height of the lesions
Method: Rice seedlings (variety Nihonbare) at the 4 - 5 leaf stage were sprayed with an aqueous suspension of the test compound at a concentration of 100 ppm (30 ml/3 pots). The seedlings were then kept for 24 hours at room temperature, after which they were inoculated with the fungus, Rhizoctonia solani, by placing 4 - 5 oat grains on which the fungus had previously been cultured around the base of each seedling. The seedlings were then kept in a moist chamber for 5 days at 25 - 27 °C. The disease controlling index was given on the basis of the height of the lesions formed on the rice seedlings.
Except in Table 12G, the compounds tested have the formula (1-1), in which Ar represents the group shown at the beginning of each part of the Table and R^1, R^2, X and Y are as defined in the Table.
(§1) The disease controlling index shown in the foregoing Tables 11 to 19 is indicated by the following codes: • 5--no disease (complete control) • 4--disease rate is less than 10% of the untreated plant • 3--disease rate is 10% - 30% of the untreated plant • 2--disease rate is 30% - 50% of the untreated plant • 1--disease rate is 50% - 70% of the untreated plant • 0--disease rate is almost same as the untreated plant.

Rhizoctonia solani [2] = experiment: Curative activity against sheath blight of rice plants (Experiment 3); parameters: key: 0 = disease as untreated, 5 = no disease (complete control); conditions: rice seedlings (variety Nihonbare), sprayed 24 hours after inoculation at 10 ppm (30 ml/3 pots), further 5 days; height of the lesions
Method: Rice seedlings (variety Nihonbare) at the 4 - 5 leaf stage were inoculated with the fungus, Rhizoctonia solani, by placing 4 - 5 oat grains on which the fungus had previously been cultured around the base of each rice seedling and keeping them in a moist chamber at 25 - 27 °C. After 24 hours, the rice seedlings were sprayed with an aqueous suspension of the test compound at a concentration of 10 ppm (30 ml/3 pots) and they then continued to be kept in the moist chamber for a further 5 days. The disease controlling index was given on the basis of the height of the lesions formed on the rice seedlings.
(§2) The compounds tested have the formula (1-1), in which Ar represents the group shown at the beginning of each part of the Table and R^1, R^2, X and Y are as defined in the Table.
as §1

Gibberella Fujikuroi = experiment: Activity against bakanae disease of rice plants by seed soaking (Experiment 5); parameters: key: 0 = disease as untreated, 5 = no disease (complete control); conditions: infected rice seeds (variety Tanginbozu) immersed 3 days in aqueous suspension (concentration not given), 3 weeks; number of diseased seedlings
Method: Ten grams of rice seeds (variety Tanginbozu), infected with Gibberella Fujikuroi, were immersed in 20 ml of an aqueous suspension of the test compound for 3 days. At the end of this time, the treated seeds were densely sown in soil in pots, and the pots were placed in a greenhouse at 20 - 30 °C for 3 weeks. The disease controlling index was given on the basis of the number of diseased seedlings.
as §2, §1

Sphaerotheca fuliginea = experiment: Preventive activity against powdery mildew of cucumber (Experiment 8); conditions: cucumber seedlings sprayed at 300 ppm, inoculated after 24 hours, evaluated after 7 days in greenhouse; diseased area on third and fourth leaves
Method: Cucumber seedlings (variety Sagamihanpaku) at the 3 - 4 leaf stage were sprayed with an aqueous suspension of the test compound at a concentration of 300 ppm (30 ml/3 pots). The seedlings were then kept for 24 hours at room temperature, after which they were inoculated with conidida of Sphaerotheca fuliginea. After keeping the seedlings in a greenhouse for 7 days, the disease controlling index was evaluated on the basis of the diseased area on the third and fourth leaves.

Venturia inaequalis = experiment: Preventive activity against apple scab (Experiment 9); conditions: apple seedlings sprayed at 300 ppm, inoculated after 24 hours, 3 days moist chamber then 10 days greenhouse; diseased area on third and fourth leaves
Method: Apple seedlings at the 3 - 4 leaf stage were sprayed with an aqueous suspension of the test compound at a concentration of 300 ppm (30 ml/3 pots). The seedlings were then kept for 24 hours at room temperature, after which they were inoculated with the fungus, Venturia inaequalis, by spraying a spore suspension of the fungus over the seedlings. After inoculation, the seedlings were kept in a moist chamber for 3 days at 20 - 22 °C and then moved to a greenhouse at 20 - 22°C for 10 days. The disease controlling index was given on the basis of the diseased area on the third and fourth leaves.

Candida albicans = experiment: ED50 in mice infected with Candida albicans, oral treatment (Experiment 11); conditions: treated orally
Method: Groups of mice (each group contained 10 mice) were inoculated with 7 to 9 x 10^6 spores per mouse of Candida albicans. 1, 4, and 24 hours after the inoculation, each mouse was orally administered 20 mg/kg of the test compound each time. The anti-fungal activity was assessed by the survival rate 9 days after infection. The survival rate was recorded as 0% 2 days after infection in an untreated (control) group. […] Following essentially the same procedure as that described in Experiment 10, mice were infected with Candida albicans, and treated orally with various compounds of the invention, as shown in the following Table 21. Fifteen days after infection (or fourteen days in the case of the compounds of Example Nos. 5 and 10), ED50 values were determined and are reported in the following Table 21.

Puccinia recondita = experiment: Curative activity against leaf rust of wheat (Experiment 6); conditions: wheat seedlings (variety Norin No 61), sprayed after inoculation at 3 ppm (30 ml/3 pots), 10 days; diseased area on the first leaf
Method: Wheat seedlings (variety Norin No 61) at the first leaf stage were inoculated with the fungus, Puccinia recondita, by spraying them with a spore suspension of the fungus. They were then kept in a moist chamber for 24 hours at 20 - 22 °C, after which they were moved to a greenhouse at 15 - 20 °C. […] The seedlings were then continuously kept in the greenhouse for 10 days. The disease controlling index was given on the basis of diseased area on the first leaf.

[3] = tested on: Erysiphe graminis f.sp. hordei; experiment: Curative activity against powdery mildew of barley (Experiment 7); conditions: barley seedlings (variety Sekishinriki), sprayed one day after inoculation at 3 ppm (30 ml/3 pots), further 10 days; diseased area on the first leaf
Method: Barley seedlings (variety […]) at the first leaf stage were inoculated with conidia of Erysiphe graminis f.sp. hordei and kept in a greenhouse at 15 - 20°C. After one day, the seedlings were sprayed with an aqueous suspension of the test compound at a concentration of 3 ppm (30 ml/3 pots), and they continued to be kept in the greenhouse at that temperature for a further 10 days. The disease controlling index was given on the basis of the diseased area on the first leaf.

Rhizoctonia solani [4] = experiment: Preventive activity against sheath blight of rice plants by submerged application (Experiment 4); conditions: rice seedlings (variety Nihonbare), applied to the water in the pots, 100 g per 10 ares, inoculated after 7 days, 5 days; height of the lesions
Description: Rice seedlings (variety Nihonbare) at the 4 - 5 leaf stage grown in pots were flooded to a depth of 1 cm with water. The test compound was then applied to the water in the pots in an amount corresponding to 100 g per 10 ares. After keeping the seedlings in a greenhouse for 7 days, the water was drained from the pots and the seedlings were inoculated with the fungus, Rhizoctonia solani, by placing 4 - 5 oat grains on which the fungus had previously been cultured around the base of each seedling. The seedlings were then kept in a moist chamber for 5 days at 25 - 27 °C. The disease controlling index was given on the basis of the height of the lesions formed on the rice seedlings.
Except for Table 14F, the compounds tested have the formula (1-1), in which Ar represents the group shown at the beginning of each part of the Table and R^1, R^2, X and Y are as defined in the Table.
as §1

[5] = 336 h, fourteen days after infection (Example Nos. 5 and 10)
[6] = 360 h, fifteen days after infection

SMILES	disease controlling index (Pyricularia oryzae)	disease controlling index (Rhizoctonia solani [1])	disease controlling index (Rhizoctonia solani [2])	disease controlling index (Gibberella Fujikuroi)	Index (disease controlling index) (Sphaerotheca fuliginea)	Index (disease controlling index) (Venturia inaequalis)	ED50 (Candida albicans; [5]) [mg/kg]	ED50 (Candida albicans; [6]) [mg/kg]	disease controlling index (Puccinia recondita)	disease controlling index [3]	disease controlling index (Rhizoctonia solani [4])
C[C@@H](NC(=O)c1ccc(Cl)cc1)[C@](O)(Cn1cncn1)c1ccc(Cl)cc1Cl [Example 10, (2R, 3R)-3-(4-Chlorobenzoylamino)-2-(2,4-dichlorophenyl)-1-(1H-1,2,4-triazol-1-yl)-2-butanol]	4 (disease rate is less than 10% of the untreated plant)	5	5	5	5	5	< 2.5				
C[C@@H](SC(=O)c1ccc(C(F)(F)F)cc1)[C@](O)(Cn1cncn1)c1ccc(Cl)cc1Cl (relative stereo) [Example 46, (2R*, 3R*)-2-(2,4-Dichlorophenyl)-1-(1H-1 ,2,4-triazol-1-yl)-3-[4-(trifluoromethyl)benzoylthio]-2-butanol]					5	5		0.73			
C[C@@H](NC(=O)c1ccc(C(F)(F)F)cc1)[C@](O)(Cn1cncn1)c1ccc(F)cc1F (relative stereo) [Example 17, (2R*, 3R*)-2-(2,4-0ifluorophenyl)-1-(1H-1,2,4-triazol-1-yl)-3-(4-trifluoromethylbenzoylamino)-2-butanol]	5	4 (disease rate is less than 10% of the untreated plant)	4 (disease rate is less than 10% of the untreated plant)	4 (disease rate is less than 10% of the untreated plant)	4 (disease rate is less than 10% of the untreated plant)			0.86	5	5	
C[C@@H](NC(=O)c1ccc(Cl)cc1)[C@](O)(Cn1cncn1)c1ccc(Cl)cc1Cl (relative stereo) [Example 5, (2R*, 3R*)-3-(4-Chlorobenzoylamino)-2-(2,4-dichlorophenyl)-1-(1H-1,2,4-triazol-1-yl)-2-butanol]		5			5	5	7.07		5	5	4 (disease rate is less than 10% of the untreated plant)
C[C@@H](N(C)C(=O)c1ccc(C(F)(F)F)cc1)[C@](O)(Cn1cncn1)c1ccc(F)cc1F (relative stereo) [Example 59, (2R^*, 3R*)-2-(2,4-Difluorophenyl)-3-{N-methyl-N-[4-(trifluoromethyl)benzoyl]amino}-1-(1H-1,2,4-triazol-1-yl)-2-butanol]		5	5	4 (disease rate is less than 10% of the untreated plant)	5	5		0.66			4 (disease rate is less than 10% of the untreated plant)
C[C@@H](NC(=O)c1ccc(C(F)(F)F)cc1F)[C@](O)(Cn1cncn1)c1ccc(F)cc1F [Example 65]	5	5	5	4 (disease rate is less than 10% of the untreated plant)	5			< 0.625	5	5	

Reference: patent publication EP0332387B1, “Triazole derivatives, their preparation and their use as fungicides” (Sankyo Company Limited, priority 1988, dated 1989)
